From the supplement of paper PMC9663587

What was measured:
THZ-P1-2 = compound: CN(C)C/C=C/C(=O)NC1=CC=C(C=C1)C(=O)NC2=CC=CC(=C2)NC3=NC=NC(=C3)C4=CNC5=CC=CC=C54 [THZ-P1-2]
Ceritinib/LDK378 = compound: Cc1cc(Nc2ncc(Cl)c(Nc3ccccc3S(=O)(=O)C(C)C)n2)c(OC(C)C)cc1C1CCNCC1 [Ceritinib/LDK378]
Luminespib/NVP-AUY922 = compound: CCNC(=O)c1noc(-c2cc(C(C)C)c(O)cc2O)c1-c1ccc(CN2CCOCC2)cc1 [Luminespib/NVP-AUY922]
Saracatinib/AZD0530 = compound: CN1CCN(CCOc2cc(OC3CCOCC3)c3c(Nc4c(Cl)ccc5c4OCO5)ncnc3c2)CC1 [Saracatinib/AZD0530]
BSJ-01-175 = compound: CN(C)C/C=C/C(=O)Nc1ccc(O[C@@H]2CCC[C@@H](Nc3ncc(Cl)c(-c4c[nH]c5ccccc45)n3)C2)cc1 [BSJ-01-175]
[1] = compound: CCCCOc1c(C(=O)c2c(F)cc(C)cc2F)c[nH]c2nncc1-2
BSJ-03-123 = compound: CC(=O)c1c(C)c2cnc(Nc3ccc(N4CCN(CCOCCOCCOCCNC(=O)COc5cccc6c5C(=O)N(C5CCC(=O)NC5=O)C6=O)CC4)cn3)nc2n(C2CCCC2)c1=O [BSJ-03-123]; assay: increase in dead-cell fraction, 72 h; higher = more death;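 note: breast cancer cell lines in 384-well plates, stained with Hoechst plus LIVE/DEAD far red dye and imaged, cells above an LDR intensity threshold counted dead, Hoechst-negative corpses included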
Neratinib/HKI272 = compound: CCOc1cc2ncc(C#N)c(Nc3ccc(OCc4ccccn4)c(Cl)c3)c2cc1NC(=O)/C=C/CN(C)C [Neratinib/HKI272]; assay: as above
[2] = compound: CCc1cnn2c(NCc3ccc[n+]([O-])c3)cc(N3CCCC[C@H]3CCO)nc12; assay: as above
[3] = compound: CCN1CCN(Cc2ccc(Nc3ncc(F)c(-c4cc(F)c5nc(C)n(C(C)C)c5c4)n3)nc2)CC1; assay: as above
THZ1 = compound: CN(C)C/C=C/C(=O)Nc1ccc(C(=O)Nc2cccc(Nc3ncc(Cl)c(-c4c[nH]c5ccccc45)n3)c2)cc1 [THZ1]; assay: as above
[4] = compound: CC(=O)c1c(C)c2cnc(Nc3ccc(N4CCNCC4)cn3)nc2n(C2CCCC2)c1=O; assay: as above
THZ531 = compound: CN(C)C/C=C/C(=O)Nc1ccc(C(=O)N2CCC[C@@H](Nc3ncc(Cl)c(-c4c[nH]c5ccccc45)n3)C2)cc1 [THZ531]; assay: as above
LEE011/Ribociclib = compound: CN(C)C(=O)c1cc2cnc(Nc3ccc(N4CCNCC4)cn3)nc2n1C1CCCC1 [LEE011/Ribociclib]; assay: as above
Flavopiridol = compound: CN1CC[C@H](c2c(O)cc(O)c3c(=O)cc(-c4ccccc4Cl)oc23)[C@H](O)C1 [Flavopiridol]; assay: as above
YKL-5-124 = compound: C=CC(=O)Nc1ccc(C(=O)Nc2[nH]nc3c2CN(C(=O)N[C@H](CN(C)C)c2ccccc2)C3(C)C)cc1 [YKL-5-124]; assay: as above
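Throughout, for GR50, 72 h: breast cancer and non-malignant breast epithelial cell lines, Deep Dye Drop or Dye Drop imaging, nine half-log doses, GR normalized to time-zero plates and DMSO-only controls.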

MDAMB468
GR50, 72 h (THZ-P1-2): 3.59 µM | GR50, 72 h (Ceritinib/LDK378): 0.767 µM | GR50, 72 h (Luminespib/NVP-AUY922): 0.00483 µM | GR50, 72 h (Saracatinib/AZD0530): 4.96 µM | GR50, 72 h (BSJ-01-175): 0.00931 µM | GR50, 72 h [1]: 0.133 µM | increase in dead-cell fraction (BSJ-03-123; 0.001 µM): -0.0103 | increase in dead-cell fraction (BSJ-03-123; 0.003162 µM): 0.0028 | increase in dead-cell fraction (BSJ-03-123; 0.01 µM): 0.0034 | increase in dead-cell fraction (BSJ-03-123; 0.03162 µM): 0.0062 | increase in dead-cell fraction (BSJ-03-123; 0.1 µM): 0.0131 | increase in dead-cell fraction (BSJ-03-123; 0.3162 µM): 0.0169 | increase in dead-cell fraction (BSJ-03-123; 1 µM): 0.0332 | increase in dead-cell fraction (BSJ-03-123; 3.162 µM): 0.0309 | increase in dead-cell fraction (BSJ-03-123; 10 µM): 0.128 | increase in dead-cell fraction (Neratinib/HKI272; 0.0003162 µM): 0.0075 | increase in dead-cell fraction (Neratinib/HKI272; 0.001 µM): 0.0021 | increase in dead-cell fraction (Neratinib/HKI272; 0.003162 µM): 0.0111 | increase in dead-cell fraction (Neratinib/HKI272; 0.01 µM): 0.0196 | increase in dead-cell fraction (Neratinib/HKI272; 0.03162 µM): 0.0337 | increase in dead-cell fraction (Neratinib/HKI272; 0.1 µM): 0.0953 | increase in dead-cell fraction (Neratinib/HKI272; 0.3162 µM): 0.205 | increase in dead-cell fraction (Neratinib/HKI272; 1 µM): 0.381 | increase in dead-cell fraction (Neratinib/HKI272; 3.162 µM): 0.6 | increase in dead-cell fraction ([2]; 0.0001 µM): 0.0037 | increase in dead-cell fraction ([2]; 0.0003162 µM): -0.0009 | increase in dead-cell fraction ([2]; 0.001 µM): -0.0038 | increase in dead-cell fraction ([2]; 0.003162 µM): 0.0016 | increase in dead-cell fraction ([2]; 0.01 µM): 0.0237 | increase in dead-cell fraction ([2]; 0.03162 µM): 0.245 | increase in dead-cell fraction ([2]; 0.1 µM): 0.396 | increase in dead-cell fraction ([2]; 0.3162 µM): 0.462 | increase in dead-cell fraction ([2]; 1 µM): 0.494 | increase in dead-cell fraction ([3]; 0.001 µM): 0.0107 | increase in dead-cell fraction ([3]; 0.003162 µM): 0.0019 | increase in dead-cell fraction ([3]; 0.01 µM): -0.0006 | increase in dead-cell fraction ([3]; 0.03162 µM): -0.0012 | increase in dead-cell fraction ([3]; 0.1 µM): -0.0016 | increase in dead-cell fraction ([3]; 0.3162 µM): -0.0021 | increase in dead-cell fraction ([3]; 1 µM): 0.019 | increase in dead-cell fraction ([3]; 3.162 µM): 0.101 | increase in dead-cell fraction ([3]; 10 µM): 0.545 | increase in dead-cell fraction (THZ1; 0.0001 µM): -0.0001 | increase in dead-cell fraction (THZ1; 0.0003162 µM): -0.0124 | increase in dead-cell fraction (THZ1; 0.001 µM): -0.0067 | increase in dead-cell fraction (THZ1; 0.003162 µM): -0.0067 | increase in dead-cell fraction (THZ1; 0.01 µM): 0.0039 | increase in dead-cell fraction (THZ1; 0.03162 µM): 0.0402 | increase in dead-cell fraction (THZ1; 0.1 µM): 0.165 | increase in dead-cell fraction (THZ1; 0.3162 µM): 0.149 | increase in dead-cell fraction (THZ1; 1 µM): 0.313 | increase in dead-cell fraction ([4]; 0.0003162 µM): 0.0165 | increase in dead-cell fraction ([4]; 0.001 µM): 0.0114 | increase in dead-cell fraction ([4]; 0.003162 µM): 0.0024 | increase in dead-cell fraction ([4]; 0.01 µM): -0.0003 | increase in dead-cell fraction ([4]; 0.03162 µM): 0.0031 | increase in dead-cell fraction ([4]; 0.1 µM): -0.006 | increase in dead-cell fraction ([4]; 0.3162 µM): -0.0071 | increase in dead-cell fraction ([4]; 1 µM): -0.001 | increase in dead-cell fraction ([4]; 3.162 µM): -0.0077 | increase in dead-cell fraction (THZ531; 0.0001 µM): -0.0128 | increase in dead-cell fraction (THZ531; 0.0003162 µM): 0.0007 | increase in dead-cell fraction (THZ531; 0.001 µM): -0.006 | increase in dead-cell fraction (THZ531; 0.003162 µM): 0.0023 | increase in dead-cell fraction (THZ531; 0.01 µM): 0.0064 | increase in dead-cell fraction (THZ531; 0.03162 µM): 0.0382 | increase in dead-cell fraction (THZ531; 0.1 µM): 0.104 | increase in dead-cell fraction (THZ531; 0.3162 µM): 0.168 | increase in dead-cell fraction (THZ531; 1 µM): 0.141 | increase in dead-cell fraction (LEE011/Ribociclib; 0.001 µM): -0.0034 | increase in dead-cell fraction (LEE011/Ribociclib; 0.003162 µM): -0.0042 | increase in dead-cell fraction (LEE011/Ribociclib; 0.01 µM): 0.0065 | increase in dead-cell fraction (LEE011/Ribociclib; 0.03162 µM): -0.0098 | increase in dead-cell fraction (LEE011/Ribociclib; 0.1 µM): -0.0059 | increase in dead-cell fraction (LEE011/Ribociclib; 0.3162 µM): -0.0074 | increase in dead-cell fraction (LEE011/Ribociclib; 1 µM): -0.0071 | increase in dead-cell fraction (LEE011/Ribociclib; 3.162 µM): -0.01 | increase in dead-cell fraction (LEE011/Ribociclib; 10 µM): -0.0011 | increase in dead-cell fraction (Flavopiridol; 0.0001 µM): -0.0044 | increase in dead-cell fraction (Flavopiridol; 0.0003162 µM): 0.0084 | increase in dead-cell fraction (Flavopiridol; 0.001 µM): -0.004 | increase in dead-cell fraction (Flavopiridol; 0.003162 µM): -0.0097 | increase in dead-cell fraction (Flavopiridol; 0.01 µM): 0.0094 | increase in dead-cell fraction (Flavopiridol; 0.03162 µM): 0.002 | increase in dead-cell fraction (Flavopiridol; 0.1 µM): 0.0269 | increase in dead-cell fraction (Flavopiridol; 0.3162 µM): 0.0941 | increase in dead-cell fraction (Flavopiridol; 1 µM): 0.274 | increase in dead-cell fraction (YKL-5-124; 0.001 µM): 0.0818 | increase in dead-cell fraction (YKL-5-124; 0.003162 µM): 0.116 | increase in dead-cell fraction (YKL-5-124; 0.01 µM): 0.0906 | increase in dead-cell fraction (YKL-5-124; 0.03162 µM): 0.163 | increase in dead-cell fraction (YKL-5-124; 0.1 µM): 0.171 | increase in dead-cell fraction (YKL-5-124; 0.3162 µM): 0.183 | increase in dead-cell fraction (YKL-5-124; 1 µM): 0.231 | increase in dead-cell fraction (YKL-5-124; 3.162 µM): 0.213 | increase in dead-cell fraction (YKL-5-124; 10 µM): 0.386
